ChEMBL document CHEMBL4382216, “Asymmetric synthesis and biological evaluation of imidazole- and oxazole-containing synthetic lipoxin A4 mimetics (sLXms)” (Eur J Med Chem, 2019)
Active and inactive are the calls of the source. The rule behind the calls is not given here.

Key:
Homo sapiens [1] = species: Homo sapiens; test: Activation of Luc-fused NFkB (unknown origin) expressed in non-stimulated human THP1 cells assessed as relative luminescence unit at 10^-12 M after 24 hrs by luciferase reporter gene assay (reference value: 100%); assay type: cell-based
Homo sapiens [2] = species: Homo sapiens; test: Activation of Luc-fused NFkB (unknown origin) expressed in non-stimulated human THP1 cells assessed as relative luminescence unit at 10^-11 M after 24 hrs by luciferase reporter gene assay (reference value: 100%); assay type: cell-based
Homo sapiens [3] = species: Homo sapiens; test: Activation of Luc-fused NFkB (unknown origin) expressed in non-stimulated human THP1 cells assessed as relative luminescence unit at 10^-10 M after 24 hrs by luciferase reporter gene assay (reference value: 100%); assay type: cell-based
Homo sapiens [4] = species: Homo sapiens; test: Activation of Luc-fused NFkB (unknown origin) expressed in non-stimulated human THP1 cells assessed as relative luminescence unit at 10^-9 M after 24 hrs by luciferase reporter gene assay (reference value: 100%); assay type: cell-based
Homo sapiens [5] = species: Homo sapiens; test: Activation of Luc-fused NFkB (unknown origin) expressed in non-stimulated human THP1 cells assessed as relative luminescence unit at 10^-8 M after 24 hrs by luciferase reporter gene assay (reference value: 100%); assay type: cell-based
Homo sapiens [6] = species: Homo sapiens; test: Activation of Luc-fused NFkB (unknown origin) expressed in non-stimulated human THP1 cells assessed as relative luminescence unit at 10^-7 M after 24 hrs by luciferase reporter gene assay (reference value: 100%); assay type: cell-based
Homo sapiens [7] = species: Homo sapiens; test: Activation of Luc-fused NFkB (unknown origin) expressed in non-stimulated human THP1 cells assessed as relative luminescence unit at 10^-6 M after 24 hrs by luciferase reporter gene assay (reference value: 100%); assay type: cell-based
[8] = target: T1, N-formyl peptide receptor 2 (Homo sapiens, UniProt P25090); test: Agonist activity at ALX/FPR2 in human THP1 cells harboring NF-kB-Luc assessed as inhibition of LPS-induced NFkB signalling activation pretreated for 30 mins followed by LPS stimulation for 24 hrs by luciferase reporter gene assay; assay type: cell-based
T1 sequence (P25090 whole entry): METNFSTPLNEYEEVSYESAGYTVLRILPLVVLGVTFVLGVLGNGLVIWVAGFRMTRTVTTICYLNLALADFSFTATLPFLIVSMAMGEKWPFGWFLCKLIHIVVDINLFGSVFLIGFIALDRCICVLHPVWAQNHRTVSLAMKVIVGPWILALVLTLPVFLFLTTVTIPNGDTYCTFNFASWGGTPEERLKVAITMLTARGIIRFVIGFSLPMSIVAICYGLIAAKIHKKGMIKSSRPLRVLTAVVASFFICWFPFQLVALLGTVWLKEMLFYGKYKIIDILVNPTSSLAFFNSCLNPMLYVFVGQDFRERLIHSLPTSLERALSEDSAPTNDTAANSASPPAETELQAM

[9] = target: T1, N-formyl peptide receptor 2; test: Agonist activity at ALX/FPR2 in human THP1 cells harboring NF-kB-Luc assessed as inhibition of LPS-induced NFkB signalling activation by measuring reduction in IFNgamma secretion pretreated for 30 mins followed by LPS stimulation for 24 hrs by electrochemiluminescence assay; assay type: cell-based; settings: read-out: IC50
[10] = target: T1, N-formyl peptide receptor 2; test: Agonist activity at ALX/FPR2 in human THP1 cells harboring NF-kB-Luc assessed as inhibition of LPS-induced NFkB signalling activation by measuring reduction in IL-12p70 secretion pretreated for 30 mins followed by LPS stimulation for 24 hrs by electrochemiluminescence assay; assay type: cell-based; settings: read-out: IC50
[11] = target: T1, N-formyl peptide receptor 2; test: Agonist activity at ALX/FPR2 in human THP1 cells harboring NF-kB-Luc assessed as inhibition of LPS-induced NFkB signalling activation by measuring reduction in TNFalpha secretion pretreated for 30 mins followed by LPS stimulation for 24 hrs by electrochemiluminescence assay; assay type: cell-based; settings: read-out: IC50
[12] = target: T1, N-formyl peptide receptor 2; test: Agonist activity at ALX/FPR2 in human THP1 cells harboring NF-kB-Luc assessed as inhibition of LPS-induced NFkB signalling activation by measuring reduction in IL-1beta secretion pretreated for 30 mins followed by LPS stimulation for 24 hrs by electrochemiluminescence assay; assay type: cell-based
[13] = target: T1, N-formyl peptide receptor 2; test: Agonist activity at ALX/FPR2 in human THP1 cells harboring NF-kB-Luc assessed as inhibition of LPS-induced NFkB signalling activation by measuring reduction in IL-6 secretion pretreated for 30 mins followed by LPS stimulation for 24 hrs by electrochemiluminescence assay; assay type: cell-based; settings: read-out: IC50
THP-1 [14] = test: Cytotoxicity against human THP1 cells harboring NFkB-Luc assessed as LDH release at 10'12 M after 24 hrs by spectrophotometric method relative to control; assay type: cell-based; settings: thp-1, 24 h
THP-1 [15] = test: Cytotoxicity against human THP1 cells harboring NFkB-Luc assessed as LDH release at 10'11 M after 24 hrs by spectrophotometric method relative to control; assay type: cell-based; settings: thp-1, 24 h
THP-1 [16] = test: Cytotoxicity against human THP1 cells harboring NFkB-Luc assessed as LDH release at 10'10 M after 24 hrs by spectrophotometric method relative to control; assay type: cell-based; settings: thp-1, 24 h
THP-1 [17] = test: Cytotoxicity against human THP1 cells harboring NFkB-Luc assessed as LDH release at 10'9 M after 24 hrs by spectrophotometric method relative to control; assay type: cell-based; settings: thp-1, 24 h
THP-1 [18] = test: Cytotoxicity against human THP1 cells harboring NFkB-Luc assessed as LDH release at 10'8 M after 24 hrs by spectrophotometric method relative to control; assay type: cell-based; settings: thp-1, 24 h
THP-1 [19] = test: Cytotoxicity against human THP1 cells harboring NFkB-Luc assessed as LDH release at 10'7 M after 24 hrs by spectrophotometric method relative to control; assay type: cell-based; settings: thp-1, 24 h
THP-1 [20] = test: Cytotoxicity against human THP1 cells harboring NFkB-Luc assessed as LDH release at 10'6 M after 24 hrs by spectrophotometric method relative to control; assay type: cell-based; settings: thp-1, 24 h
HEK293 = test: Induction of intracellular calcium accumulation in HEK293 cells at 0.01 nM to 100 nM by Fluo-4 dye based fluorescence spectrophotometric assay; assay type: functional, cell-based; settings: Homo sapiens
Mus musculus [21] = test: Anti-inflammatory activity in zymosan-induced C57BL/6J mouse peritonitis model assessed as total cell count in peritoneal cavity at 50 ng, ip pretreated for 30 mins followed by zymosan treatment and redosing of test compound at 1 hr post zymosan addition and measured 4 hrs post zymosan addition by flow cytometry (reference value: 100%); assay type: functional
Mus musculus [22] = test: Anti-inflammatory activity in zymosan-induced C57BL/6J mouse peritonitis model assessed as total cell count in peritoneal cavity at 150 ng, ip pretreated for 30 mins followed by zymosan treatment and redosing of test compound at 1 hr post zymosan addition and measured 4 hrs post zymosan addition by flow cytometry (reference value: 100%); assay type: functional
Mus musculus [23] = test: Anti-inflammatory activity in zymosan-induced C57BL/6J mouse peritonitis model assessed as PMN leukocytes level in peritoneal cavity at 50 ng, ip pretreated for 30 mins followed by zymosan treatment and redosing of test compound at 1 hr post zymosan addition and measured 4 hrs post zymosan addition by flow cytometry (reference value: 100%); assay type: functional
Mus musculus [24] = test: Anti-inflammatory activity in zymosan-induced C57BL/6J mouse peritonitis model assessed as PMN leukocytes level in peritoneal cavity at 150 ng, ip pretreated for 30 mins followed by zymosan treatment and redosing of test compound at 1 hr post zymosan addition and measured 4 hrs post zymosan addition by flow cytometry (reference value: 100%); assay type: functional

CCCCC[C@@H](O)c1c(/C=C/[C@@H](O)[C@@H](O)CCCC(=O)OC)nc(C)n1C
Activity (Homo sapiens [1]): 2%
Activity (Homo sapiens [2]): 2.1%
Activity (Homo sapiens [3]): 2.3%
Activity (Homo sapiens [4]): 2.1%
Activity (Homo sapiens [5]): 2.1%
Activity (Homo sapiens [6]): 2.5%
Activity (Homo sapiens [7]): 2%
IC50 [8]: 1 nM
IC50 [9]: 4.4 nM
IC50 [10]: 5.1 nM
IC50 [11]: 5.6 nM
IC50 [12]: Not Active
IC50 [13]: 76.6 nM
fold change (FC) (THP-1 [14]): 1
fold change (FC) (THP-1 [15]): 0.9
fold change (FC) (THP-1 [16]): 0.9
fold change (FC) (THP-1 [17]): 0.8
fold change (FC) (THP-1 [18]): 0.9
fold change (FC) (THP-1 [19]): 0.9
fold change (FC) (THP-1 [20]): 1.1
Activity (HEK293): inactive
Emax (Mus musculus [21]): 57.9%
Emax (Mus musculus [22]): 30.4%
Emax (Mus musculus [23]): 51.6%
Emax (Mus musculus [24]): 32.5%
